This is an account of results in US6482830B1 (SuperGen, Inc., priority 2002, dated 2002).

Like-named read-outs stand apart in the source and are kept apart here.

The subject of one data set is human tumor xenografts. The settings on record: cited from earlier work.
Data set [1] concerns human colon cancer xenografts. The settings on record: in vivo; cited from earlier work.
Another data set concerns the target T1, DNA topoisomerase I (Homo sapiens, UniProt P11387).
T1 sequence (P11387 1-765): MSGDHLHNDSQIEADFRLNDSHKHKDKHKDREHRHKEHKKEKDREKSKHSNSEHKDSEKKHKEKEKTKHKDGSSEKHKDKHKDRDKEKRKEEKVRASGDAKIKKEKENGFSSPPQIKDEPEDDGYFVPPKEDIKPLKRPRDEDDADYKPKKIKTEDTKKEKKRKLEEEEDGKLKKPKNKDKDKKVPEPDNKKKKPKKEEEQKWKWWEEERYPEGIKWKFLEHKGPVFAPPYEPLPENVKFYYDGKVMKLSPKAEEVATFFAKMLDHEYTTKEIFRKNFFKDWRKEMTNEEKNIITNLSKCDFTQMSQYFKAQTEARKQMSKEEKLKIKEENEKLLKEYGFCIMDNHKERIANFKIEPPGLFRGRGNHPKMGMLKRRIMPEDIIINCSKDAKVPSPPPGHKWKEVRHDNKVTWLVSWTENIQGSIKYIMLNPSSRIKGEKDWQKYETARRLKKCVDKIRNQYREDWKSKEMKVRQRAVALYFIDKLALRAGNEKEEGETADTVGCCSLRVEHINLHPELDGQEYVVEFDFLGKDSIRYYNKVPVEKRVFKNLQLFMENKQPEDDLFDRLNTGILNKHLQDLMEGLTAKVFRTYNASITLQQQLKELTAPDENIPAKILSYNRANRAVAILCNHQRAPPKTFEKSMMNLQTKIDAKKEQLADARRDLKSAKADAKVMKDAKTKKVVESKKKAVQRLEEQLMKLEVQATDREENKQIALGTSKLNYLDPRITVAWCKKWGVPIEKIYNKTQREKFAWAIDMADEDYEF
The settings on record: by stabilizing the cleavable complex; cited from earlier work.

The conditions of data set [2]: cited from earlier work.
The conditions of data set [3]: for Hygroscopicity: from moisture sorption 5 to 95% RH; for Weight % chg: 25 deg C. As for the experimental part:
Moisture sorption/desorption data were collected on a VTI SGA-100 moisture balance system. […] The samples were not dried prior to analysis. Equilibrium criteria used for analysis were less than 0.0100 weight % change in 5 minutes with a maximum equilibration time of 3 hours if the weight criterion was not met. Data were not corrected for the initial moisture content of the samples.

For data set [4] the following is noted: ground in an amalgamator for 10 minutes.
For data set [5] the following is noted: closed vial, 31 days, ambient conditions.
The procedure of data set [6]: Dehydration/desolvation studies were conducted by placing a sample under continuous vacuum at room temperature for 14 days. An XRPD pattern was obtained on the remaining solid and compared to the starting material.
The conditions of data set [7]: cited from earlier work. The source holds these as a separate data set.

Turning to `CC[C@@]1(O)C(=O)OCc2c1cc1n(c2=O)Cc2cc3c([N+](=O)[O-])cccc3nc2-1` [9-nitrocamptothecin, 9-nitro-20(S)-camptothecin], the “Growth of human tumor xenografts” value in the data set on human tumor xenografts (immunodeficient nude mice) was “inhibited the growth”. For the same compound, the “Activity against human tumor xenograft models” value in the data set on human tumor xenografts (mouse, in vivo) was “high activity”. For the same compound, the “Regression of established human tumors” value in the data set with human tumor xenografts (xenografts in nude mice) was “induced regression”.

`CC[C@@]1(O)C(=O)OCc2c1cc1n(c2=O)Cc2cc3cc4c(cc3nc2-1)OCO4` [10,11,MD, 10,11-methylendioxy-20(S)-camptothecin]: the “Anticancer activity against human colon cancer xenografts” value in data set [1] is reported as “high anticancer activity”.

As for `CC[C@@]1(O)C(=O)OCc2c1cc1n(c2=O)Cc2cc3ccccc3nc2-1` [Camptothecin], the “Inhibition of DNA topoisomerase I” value on DNA topoisomerase I is “inhibit DNA topoisomerase I”. In addition, the Water solubility result in data set [2] is recorded as “poorly water soluble”.

Regarding `CC[C@@]1(O)C(=O)OCc2c1cc1n(c2=O)Cc2cc3c(N)cccc3nc2-1` [Form 9AC, 9-Amino-20(S)-Camptothecin], the “Anticancer activity against human colon cancer xenografts” value in [1] was “high anticancer activity”.

Regarding `CC[C@@]1(O)C(=O)OCc2c1cc1n(c2=O)Cc2cc3c([N+](=O)[O-])cccc3nc2-1` [Form A, 9-nitro-20(S)-camptothecin], the Hygroscopicity entry in data set [3] is reported as “not hygroscopic”. In addition, the “Change of crystallinity on grinding (XRPD)” value in [4] is on record as “losing crystallinity after grinding”.

As for `CC[C@@]1(O)C(=O)OCc2c1cc1n(c2=O)Cc2cc3c([N+](=O)[O-])cccc3nc2-1` [Form B, 9-nitro-20(S)-camptothecin], in data set [3] (5 to 95% RH), the “Total weight gained in the region from 5 to 95% RH” value is reported as 2.21%. Also, the Weight % chg in data set [3] (desorption, about 5% RH) is −1.0408%; in data set [3] (desorption, about 15% RH), −0.5118%; in data set [3] (desorption, about 25% RH), −0.1151%; in data set [3] (desorption, about 35% RH), 0.1861%; in data set [3] (desorption, about 45% RH), 0.4359%; in data set [3] (desorption, about 55% RH), 0.6637%. Further, the Weight % chg is given as 0.8473% in data set [3] (desorption, about 65% RH); 1.0310% in [3] (desorption, about 75% RH); 1.1706% in [3] (desorption, about 85% RH); −0.9820% in data set [3] (sorption, about 5% RH); −0.4898% in data set [3] (sorption, about 15% RH); −0.1151% in data set [3] (sorption, about 25% RH). Further, the Weight % chg in [3] (sorption, about 35% RH) is on record as 0.1788%; in data set [3] (sorption, about 45% RH), 0.4286%; in data set [3] (sorption, about 55% RH), 0.6416%; in data set [3] (sorption, about 65% RH) it was 0.8314%; in data set [3] (sorption, about 75% RH), 0.9869%; in data set [3] (sorption, about 85% RH), 1.1118%. In addition, the Weight % chg in data set [3] (sorption, about 95% RH) came to 1.2293%; in [3] (start, elapsed time 0.0 min) it was 0.0000%. Moreover, the “Water lost upon equilibration at 5% RH” value in data set [3] (equilibration at 5% RH) stood at 0.98%. Further, the Hygroscopicity entry in [3] was “relatively hygroscopic”. In addition, in [5], the “Stability of the crystalline polymorph on storage (XRPD pattern)” value is recorded as “relatively stable”.

As for `CC[C@@]1(O)C(=O)OCc2c1cc1n(c2=O)Cc2cc3c([N+](=O)[O-])cccc3nc2-1` [Form C, 9-nitro-20(S)-camptothecin], the “Change of form on desolvation under vacuum” value in data set [6] is listed as “becomes amorphous”.

Consider `CC[C@@](O)(C(=O)[O-])c1cc2n(c(=O)c1CO)Cc1cc3ccccc3nc1-2.[Na+]` [Sodium camptothecin], for which the “Side effects in clinical trials” value in data set [7] (administered intravenously) is “myelosuppression and hemorrhagic cystitis”. Further, the “Antineoplastic activity in clinical trials” value in [7] (solubilized by sodium hydroxide in water, early 1970's trials) was “found to have antineoplastic activity”.
